Measurements published in patent publication US4731381A, “Method of treating a person for sickle cell anemia” (Merck & Co., Inc., priority 1986, dated 1988).
Where a name gives a salt, the structure may show the parent alone.

Assays:
sickle hemoglobin (HbS) = sickle hemoglobin (HbS) (Homo sapiens, UniProt P68871+P69905, E7V); test: solubility assay (Csat assay) of sickle hemoglobin; assay type: biochemical; settings: for activation at 3000 µM: 3 mM; for activation at 3000 µM / activation at 5000 µM / activation at 7000 µM / activation at 9000 µM: read-out: % increase in Solubility of HbS; for activation at 7000 µM: 7 mM; for activation at 9000 µM: 9 mM
Excerpt: One major assay for evaluating antisickling agents involves measuring their effect on increasing the concentration at which sickle hemoglobin forms a gel. This is called the solubility or Csat assay.
The solubility assay (Csat assay) measures the ability of a compound to increase solubility of sickle hemoglobin (HbS). […] The higher the ratio, the higher the activity of the compound.
In order to confirm the effectiveness of these compounds in reducing the effect of sickle cell anemia, tests were performed. The materials were tested according to the assay (Csat) developed by Hofrichter et al. (J. Hofrichter, P. D. Ross and W. A. Eaton, Proc. Natl. Acad. Sci., U.S.A. 73, 30-35, 1976). This assay involves deoxygenation of concentrated sickle hemoglobin with dithionite in the presence of different concentrations of the drugs being tested. Samples are then sealed in quartz epr tubes under anaerobic conditions and spun at about 150,000 g for about 21/2 hours at about 35° C. in an ultracentrifuge. This procedure pellets the polymerized HbS (sickle hemoglobin) to the bottom of the tubes and the supernatant (soluble HbS) is measured in the laboratory as the cyanmethemoglobulin derivative. […] Activity is reported as a ratio of the HbS solubility with the particular drug to HbS solubility with no drug, i.e. control. The higher the ratio the greater degree of activity of the drug. The numbers in parenthesis are the percent increase in solubility of HbS; again, the higher the number, the greater the activity. The results of representative compounds from the Examples are shown in Table I as typical of the compounds of the invention.

HbS = test: chromatographic separation, covalent binding between HbS and the agent
erythrocyte membranes = test: tests of transport across erythrocyte membranes; assay type: in vitro ADME

| SMILES | activation at 3000 µM (sickle hemoglobin (HbS)) [%] | activation at 5000 µM (sickle hemoglobin (HbS); 5 mM) [%] | activation at 7000 µM (sickle hemoglobin (HbS)) [%] | activation at 9000 µM (sickle hemoglobin (HbS)) [%] | covalent binding between HbS and the therapeutic agent, in words (HbS) | ability to cross the red blood cell membrane, in words (erythrocyte membranes) | solubility ratio (Csat assay) compared with other antisickling agents, in words (sickle hemoglobin (HbS); 5 mM, sodium salt) |
| --- | --- | --- | --- | --- | --- | --- | --- |
| C=C(CC)C(=O)c1ccc(OCCC(=O)O)c(Cl)c1Cl [Example 1, 3-[2,3-dichloro-4-(2-methylenebutyryl)phenoxy]propionic acid] | 26 | 33 | 43 | 69 |  |  |  |
| C=C(CC)C(=O)c1ccc(OC(C)(C)C(=O)O)c(Cl)c1Cl [Example 8, 2-[2,3-dichloro-4-(2-methylenebutyryl)phenoxy]-2-methylpropionic acid] | 11 | 21 | 41 | 53 |  |  |  |
| C=C(CC)C(=O)c1ccc(OCCCCCC(=O)O)c(Cl)c1Cl [Example 5, 6-[2,3-dichloro-4-(2-methylenebutyryl)phenoxy]hexanoic acid] | 13 | 18 | 26 | 35 |  |  |  |
| C=C(CC)C(=O)c1ccc(OCCCC(=O)O)c(Cl)c1Cl [Example 2, 4-[2,3-dichloro-4-(2-methylenebutyryl)phenoxy]butyric acid] | 22 | 27 | 37 | 46 |  |  |  |
| C=C(CC)C(=O)c1ccc(OCCCC(=O)O)c(Cl)c1Cl [sodium salt of 4-[2,3-dichloro-4-(2-methylenebutyryl)phenoxy]butyric acid] |  |  |  |  | tight covalent binding between the HbS and the therapeutic agent had occurred | cross the red blood cell membrane and react with hemoglobin | higher solubility ratio than other antisickling agents, such as, dichlorobenzyloxyacetic and p-bromobenzyloxyacetic acids |
| C=C(CC)C(=O)c1ccc(OCCCCC(=O)O)c(Cl)c1Cl [Example 4, 5-[2,3-dichloro-4-(2-methylenebutyryl)phenoxy]valeric acid] | 21 | 34 | 52 | 80 |  |  |  |

More lines, main results first:

| activation at 3000 µM (sickle hemoglobin (HbS)) [%] | activation at 5000 µM (sickle hemoglobin (HbS); 5 mM) [%] | activation at 7000 µM (sickle hemoglobin (HbS)) [%] | activation at 9000 µM (sickle hemoglobin (HbS)) [%] | SMILES | covalent binding between HbS and the therapeutic agent, in words (HbS) | ability to cross the red blood cell membrane, in words (erythrocyte membranes) | solubility ratio (Csat assay) compared with other antisickling agents, in words (sickle hemoglobin (HbS); 5 mM, sodium salt) |
| --- | --- | --- | --- | --- | --- | --- | --- |
| 14 | 30 | 26 | 39 | C=C(CCC)C(=O)c1ccc(OC2(C(=O)O)CCC2)c(Cl)c1Cl [Example 7, 1-[2,3-dichloro-4-(2-methylenevaleryl)phenoxy]cyclobutane-1-carboxylic acid] |  |  |  |
| 19 | 30 | 34 | 48 | C=C(CC)C(=O)c1ccc(OC2(C(=O)O)CCC2)c(Cl)c1Cl [Example 6, 1-[2,3-dichloro-4-(2-methylenebutyryl)phenoxy]cyclobutane-1-carboxylic acid] |  |  |  |
| 18 | 37 | 46 | 51 | C=C(CCC)C(=O)c1ccc(OCCCC(=O)O)c(Cl)c1Cl [Example 3, 4-[2,3-dichloro-4-(2-methylenevaleryl)phenoxy]butyric acid] |  |  |  |
